Source: patent US11464770B2, “Anticancer pharmaceutical composition” (NATIONAL CANCER CENTER, priority 2016, dated 2022)
Read-outs that look alike come from different tables or passages of the source.

Assays:
[1] = test system: RT4: human urinary bladder transitional cell papilloma; assay: Cell based assay, cytotoxicity in RT4 papilloma cells (selectivity); details: Homo sapiens, RT-4; RT4 cells
Protocol: Commercially available bladder cancer, prostate cancer, lung cancer, breast cancer, blood cancer, pancreatic cancer, colorectal cancer, brain cancer, neuroblastoma, melanoma, liver cancer, cervical carcinoma, ovarian cancer, renal cancer, and papilloma cell lines were each treated with trypsin-EDTA and cultured, followed by being seeded in each well of a 96 well plate. […] The treated cells were additionally cultured for 72 hours, and cell viability was measured by using an ATP detection method (CellTiter-Glo® Luminescent Cell Viability Assay, Promega).

renal cancer cell lines = assay: Cell based assay, cell viability (CellTiter-Glo), renal cancer cell lines; details: Homo sapiens; ACHN cells
Protocol: (§1) Commercially available bladder cancer, prostate cancer, lung cancer, breast cancer, blood cancer, pancreatic cancer, colorectal cancer, brain cancer, neuroblastoma, melanoma, liver cancer, cervical carcinoma, ovarian cancer, renal cancer, and papilloma cell lines were each treated with trypsin-EDTA and cultured, followed by being seeded in each well of a 96 well plate. After 24 hours of treatment at constant temperature, the respective cells were treated with the candidate compound so that a final concentration became 0 to 2 μM. The treated cells were additionally cultured for 72 hours, and cell viability was measured by using an ATP detection method (CellTiter-Glo® Luminescent Cell Viability Assay, Promega).

[2] = test system: ovarian cancer cell lines; assay: Cell based assay, cell viability (CellTiter-Glo), ovarian cancer cell lines; details: Homo sapiens; OVCAR-3 cells
Protocol: as §1

neuroblastoma cell lines = assay: Cell based assay, cell viability (CellTiter-Glo), neuroblastoma cell lines; details: Homo sapiens; SH-SY5Y cell line
Protocol: as §1

liver cancer cell lines = assay: Cell based assay, cell viability (CellTiter-Glo), liver cancer cell lines; details: Homo sapiens, SK-HEP1; SK-HEP-1 cell line
Protocol: as §1

[3] = test system: bladder cancer cell lines; assay: Cell based assay, cell viability (CellTiter-Glo), bladder cancer cell lines; details: 72 hours treatment, 0 to 2 μM, CellTiter-Glo
Protocol: as §1

[4] = 253J cells, read-out: IC50, bladder cancer cell line 253J
[5] = 5637 cells, read-out: IC50, bladder cancer cell line 5637
[6] = Homo sapiens, T-24, T24 cells, read-out: IC50, bladder cancer cell line T24
[7] = Homo sapiens, J82 cells, read-out: IC50, bladder cancer cell line J82
[8] = Homo sapiens, UMUC3, UM-UC-3 cells, read-out: IC50, bladder cancer cell line UM-UC-3
[9] = Homo sapiens, KU-19-19 cells, read-out: IC50, bladder cancer cell line KU-19-19
[10] = MBT-2 cells, read-out: IC50, bladder cancer cell line MBT-2

CC(=O)c1c([S+]([O-])c2ccc(Br)cc2)[nH]c2c(Br)ccc(Cl)c2c1=O (centres unmarked) [Compound 17, 3-acetyl-8-bromo-2-((4-bromophenyl)sulfinyl)-5-chloroquinolin-4(1H)-one]
IC50 [1]: > 10 µM
IC50 (renal cancer cell lines): > 2 µM
IC50 [2]: > 2 µM
IC50 (neuroblastoma cell lines): > 2 µM
IC50 (liver cancer cell lines): > 2 µM
IC50 [3, 4]: > 2 µM
IC50 [3, 5]: > 2 µM
IC50 [3, 6]: > 2 µM
IC50 [3, 7]: > 2 µM

CSc1c(C(C)=O)c(=O)c2c(Cl)ccc(Br)c2n1C(C)=O [Compound 18, 1,1′-(8-bromo-5-chloro-2-(methylthio)-4-oxoquinoline-1,3(4H)-diyl)bis(ethan-1-one)]
IC50 [1]: > 10 µM
IC50 (renal cancer cell lines): > 2 µM
IC50 [2]: > 2 µM
IC50 (neuroblastoma cell lines): > 2 µM
IC50 (liver cancer cell lines): > 2 µM
IC50 [3, 4]: > 2 µM
IC50 [3, 5]: > 2 µM
IC50 [3, 6]: > 2 µM
IC50 [3, 8]: > 2 µM
IC50 [3, 7]: > 2 µM
IC50 [3, 9]: > 2 µM
IC50 [3, 10]: > 2 µM

CC(=O)c1c([S+](C)[O-])n(C(C)=O)c2c(Br)ccc(Cl)c2c1=O (centres unmarked) [Compound 19, 1,1′-(8-bromo-5-chloro-2-(methylsulfinyl)-4-oxoquinoline-1,3(4H)-diyl)bis(ethan-1-one)]
IC50 [1]: > 10 µM
IC50 (renal cancer cell lines): > 2 µM
IC50 [2]: > 2 µM
IC50 (neuroblastoma cell lines): > 2 µM
IC50 (liver cancer cell lines): > 2 µM
IC50 [3, 4]: > 2 µM
IC50 [3, 5]: > 2 µM
IC50 [3, 6]: > 2 µM
IC50 [3, 8]: > 2 µM
IC50 [3, 7]: > 2 µM
IC50 [3, 9]: > 2 µM
IC50 [3, 10]: > 2 µM

CC(=O)c1c([S+]([O-])Cc2ccccc2)n(C(=O)c2ccc(Br)cc2)c2c(Br)ccc(Cl)c2c1=O (centres unmarked) [Compound 20, 3-acetyl-2-(benzylsulfinyl)-8-bromo-1-(4-bromobenzoyl)-5-chloroquinolin-4(1H)-one]
IC50 [1]: > 10 µM
IC50 (renal cancer cell lines): > 2 µM
IC50 [2]: > 2 µM
IC50 (neuroblastoma cell lines): > 2 µM
IC50 (liver cancer cell lines): > 2 µM
IC50 [3, 4]: > 2 µM
IC50 [3, 5]: > 2 µM
IC50 [3, 6]: > 2 µM
IC50 [3, 8]: > 2 µM
IC50 [3, 7]: > 2 µM
IC50 [3, 9]: > 2 µM
IC50 [3, 10]: > 2 µM

CC(=O)c1c(S(C)(=O)=O)n(C(=O)c2ccc(Br)cc2)c2c(Br)ccc(Cl)c2c1=O [Compound 21, 3-acetyl-8-bromo-1-(4-bromobenzoyl)-5-chloro-2-(methylsulfonyl)quinolin-4(1H)-one]
IC50 [1]: > 10 µM
IC50 (renal cancer cell lines): > 2 µM
IC50 [2]: > 2 µM
IC50 (neuroblastoma cell lines): > 2 µM
IC50 (liver cancer cell lines): > 2 µM
IC50 [3, 4]: > 2 µM
IC50 [3, 5]: > 2 µM
IC50 [3, 6]: > 2 µM
IC50 [3, 8]: > 2 µM
IC50 [3, 7]: > 2 µM
IC50 [3, 9]: > 2 µM
IC50 [3, 10]: > 2 µM

CC(=O)c1c([S+](C)[O-])n(Cc2ccc(F)c(Cl)c2)c2c(Br)ccc(Cl)c2c1=O (centres unmarked) [Compound 22, 3-acetyl-8-bromo-5-chloro-1-(3-chloro-4-fluorobenzyl)-2-(methylsulfinyl)quinolin-4(1H)-one]
IC50 [1]: > 10 µM
IC50 (renal cancer cell lines): > 2 µM
IC50 [2]: > 2 µM
IC50 (neuroblastoma cell lines): > 2 µM
IC50 (liver cancer cell lines): > 2 µM
IC50 [3, 4]: > 2 µM
IC50 [3, 5]: > 2 µM
IC50 [3, 6]: > 2 µM
IC50 [3, 8]: > 2 µM
IC50 [3, 7]: > 2 µM
IC50 [3, 9]: > 2 µM
IC50 [3, 10]: > 2 µM

CC(=O)c1c(SCc2ccccc2)n(C(=O)c2ccc(Br)cc2)c2c(Br)ccc(Cl)c2c1=O [Compound 23, 3-acetyl-2-(benzylthio)-8-bromo-1-(4-bromobenzoyl)-5-chloroquinolin-4(1H)-one]
IC50 [1]: > 10 µM
IC50 (renal cancer cell lines): > 2 µM
IC50 [2]: > 2 µM
IC50 (neuroblastoma cell lines): > 2 µM
IC50 (liver cancer cell lines): > 2 µM
IC50 [3, 4]: > 2 µM
IC50 [3, 5]: > 2 µM
IC50 [3, 6]: > 2 µM
IC50 [3, 8]: > 2 µM
IC50 [3, 7]: > 2 µM
IC50 [3, 9]: > 2 µM
IC50 [3, 10]: > 2 µM

CC(=O)c1c(SC(C)C)[nH]c2c(Br)ccc(Cl)c2c1=O [Compound 24, 3-acetyl-8-bromo-5-chloro-2-(isopropylthio)quinolin-4(1H)-one]
IC50 [1]: > 10 µM
IC50 (renal cancer cell lines): > 2 µM
IC50 [2]: > 2 µM
IC50 (neuroblastoma cell lines): > 2 µM
IC50 (liver cancer cell lines): > 2 µM
IC50 [3, 4]: > 2 µM
IC50 [3, 5]: > 2 µM
IC50 [3, 6]: > 2 µM
IC50 [3, 8]: > 2 µM
IC50 [3, 7]: > 2 µM
IC50 [3, 9]: > 2 µM
IC50 [3, 10]: > 2 µM

CC(=O)c1c([S+]([O-])C(C)C)[nH]c2c(Br)ccc(Cl)c2c1=O (centres unmarked) [Compound 25, 3-acetyl-8-bromo-5-chloro-2-(isopropylsulfinyl)quinolin-4(1H)-one]
IC50 [1]: > 10 µM
IC50 (renal cancer cell lines): > 2 µM
IC50 [2]: > 2 µM
IC50 (neuroblastoma cell lines): > 2 µM
IC50 (liver cancer cell lines): > 2 µM
IC50 [3, 4]: > 2 µM
IC50 [3, 5]: > 2 µM
IC50 [3, 6]: > 2 µM
IC50 [3, 8]: > 2 µM
IC50 [3, 7]: > 2 µM
IC50 [3, 9]: > 2 µM
IC50 [3, 10]: > 2 µM

CC(=O)c1c([S+]([O-])C(C)c2ccccc2)[nH]c2c(Br)ccc(Cl)c2c1=O (centres unmarked) [Compound 26, 3-acetyl-8-bromo-5-chloro-2-((1-phenylethyl)sulfinyl)quinolin-4(1H)-one]
IC50 [1]: > 10 µM
IC50 (renal cancer cell lines): > 2 µM
IC50 [2]: > 2 µM
IC50 (neuroblastoma cell lines): > 2 µM
IC50 (liver cancer cell lines): > 2 µM
IC50 [3, 4]: > 2 µM
IC50 [3, 5]: 1.6 µM
IC50 [3, 6]: > 2 µM
IC50 [3, 7]: > 2 µM

CC(=O)c1c(SCc2cccc(C#N)c2)[nH]c2c(Br)ccc(Cl)c2c1=O [Compound 27, 3-(((3-acetyl-8-bromo-5-chloro-4-oxo-1,4-dihydroquinolin-2-yl)thio)methyl)benzonitrile]
IC50 [1]: > 10 µM
IC50 (renal cancer cell lines): > 2 µM
IC50 [2]: > 2 µM
IC50 (neuroblastoma cell lines): > 2 µM
IC50 (liver cancer cell lines): > 2 µM
IC50 [3, 4]: > 2 µM
IC50 [3, 5]: > 2 µM
IC50 [3, 6]: > 2 µM
IC50 [3, 8]: > 2 µM
IC50 [3, 7]: > 2 µM
IC50 [3, 9]: > 2 µM
IC50 [3, 10]: > 2 µM

CC(=O)c1c([S+]([O-])Cc2cccc(C#N)c2)[nH]c2c(Br)ccc(Cl)c2c1=O (centres unmarked) [Compound 28, 3-(((3-acetyl-8-bromo-5-chloro-4-oxo-1,4-dihydroquinolin-2-yl)sulfinyl)methyl)benzonitrile]
IC50 [1]: > 10 µM
IC50 (renal cancer cell lines): > 2 µM
IC50 [2]: 0.69 µM
IC50 (neuroblastoma cell lines): > 2 µM
IC50 (liver cancer cell lines): 0.76 µM
IC50 [3, 5]: 1.03 µM
IC50 [3, 6]: 0.82 µM
IC50 [3, 7]: 1.33 µM

CC(=O)c1c(SCc2ccc(F)c(Cl)c2)[nH]c2c(Br)ccc(Cl)c2c1=O [Compound 30, 3-acetyl-8-bromo-5-chloro-2-((3-chloro-4-fluorobenzyl)thio)quinolin-4(1H)-one]
IC50 [1]: > 10 µM
IC50 (renal cancer cell lines): > 2 µM
IC50 [2]: > 2 µM
IC50 (neuroblastoma cell lines): > 2 µM
IC50 (liver cancer cell lines): > 2 µM
IC50 [3, 4]: > 2 µM
IC50 [3, 5]: > 2 µM
IC50 [3, 6]: > 2 µM
IC50 [3, 8]: > 2 µM
IC50 [3, 7]: > 2 µM
IC50 [3, 9]: > 2 µM
IC50 [3, 10]: > 2 µM

CC(=O)c1c(SCc2ccc([N+](=O)[O-])cc2)[nH]c2c(Br)ccc(Cl)c2c1=O [Compound 32, 3-acetyl-8-bromo-5-chloro-2-((4-nitrobenzyl)thio)quinolin-4(1H)-one]
IC50 [1]: > 10 µM
IC50 (renal cancer cell lines): > 2 µM
IC50 [2]: > 2 µM
IC50 (neuroblastoma cell lines): > 2 µM
IC50 (liver cancer cell lines): > 2 µM
IC50 [3, 4]: > 2 µM
IC50 [3, 5]: > 2 µM
IC50 [3, 6]: > 2 µM
IC50 [3, 8]: > 2 µM
IC50 [3, 7]: > 2 µM
IC50 [3, 9]: > 2 µM
IC50 [3, 10]: > 2 µM

CSc1c(C(C)=O)c(=O)c2c(Cl)ccc(Br)c2n1S(C)(=O)=O [Compound 35, 3-acetyl-8-bromo-5-chloro-1-(methylsulfonyl)-2-(methylthio)quinolin-4(1H)-one]
IC50 [1]: > 10 µM
IC50 (renal cancer cell lines): > 2 µM
IC50 [2]: > 2 µM
IC50 (neuroblastoma cell lines): > 2 µM
IC50 (liver cancer cell lines): > 2 µM
IC50 [3, 4]: > 2 µM
IC50 [3, 5]: > 2 µM
IC50 [3, 6]: > 2 µM
IC50 [3, 8]: > 2 µM
IC50 [3, 7]: > 2 µM
IC50 [3, 9]: > 2 µM
IC50 [3, 10]: > 2 µM
